The test system of this data set is rodent lifetime carcinogenesis bioassay, tumor incidence TD50. Kind of data set: chronic cancer bioassays in animals – CPDB, compiled studies (AID 1745844). To be noted: i.p.

Drawing on PubChem BioAssay AID1745844 (Carcinogenic Potency Database (CPDB), 2022), this text covers TD50 for one compound.

Usually TD50 stands for the dose at which the toxic effect under study appears in half of the subjects. Consider `COc1cc2c(c3c1c(=O)c1ccccc1n3C)C=CC(C)(C)O2`, for which the TD50 is, setting by setting: (mouse, strain B6C3F1, females, site: liver, lesion: hepatocellular adenoma + hepatocellular carcinoma + neoplastic nodule, dosed 48 weeks, study length 78 weeks) 2.46 mg/kg/day; (mouse, strain B6C3F1, females, site: lung, lesion: alveolar/bronchiolar adenoma + alveolar/bronchiolar carcinoma, dosed 48 weeks, study length 78 weeks) 2.46 mg/kg/day; (rat, strain Sprague-Dawley, females, site: any site (literature study), lesion: several types, types named in the paper, dosed 52 weeks, study length 80 weeks) 0.568 mg/kg/day; (rat, strain Sprague-Dawley, females, site: liver, lesion: hepatocellular adenoma + hepatocellular carcinoma + neoplastic nodule, dosed 52 weeks, study length 80 weeks) 8.75 mg/kg/day; (rat, strain Sprague-Dawley, females, site: mammary gland + peritoneum, lesion: adenocarcinoma, NOS + cystadenocarcinoma, NOS + cystadenoma, NOS + fibroadenoma + papillary adenocarcinoma + fibrosarcoma + mesothel, dosed 52 weeks, study length 80 weeks) 0.873 mg/kg/day; (rat, strain Sprague-Dawley, females, site: mammary gland, lesion: adenocarcinoma, NOS + cystadenocarcinoma, NOS + cystadenoma, NOS + fibroadenoma + papillary adenocarcinoma, dosed 52 weeks, study length 80 weeks) 0.395 mg/kg/day. The TD50 reads like this: (rat, strain Sprague-Dawley, females, site: mammary gland, lesion: fibroadenoma, dosed 52 weeks, study length 80 weeks) 0.455 mg/kg/day; (rat, strain Sprague-Dawley, females, site: peritoneum, lesion: fibrosarcoma + mesothelioma, malignant + sarcoma, NOS, dosed 52 weeks, study length 80 weeks) 5.86 mg/kg/day; (rat, strain Sprague-Dawley, females, site: peritoneum, lesion: sarcoma, NOS, dosed 52 weeks, study length 80 weeks) 11.4 mg/kg/day; (rat, strain Sprague-Dawley, males, site: adrenal gland, lesion: cortical adenoma, dosed 51 weeks, study length 80 weeks) 1.85 mg/kg/day; (rat, strain Sprague-Dawley, males, site: all sites + bone + peritoneum + vertebra, lesion: osteosarcoma + fibrosarcoma + mesothelioma, NOS + mesothelioma, malignant + sarcoma, NOS, dosed 51 weeks, study length 80 weeks) 0.497 mg/kg/day; (rat, strain Sprague-Dawley, males, site: all sites, lesion: osteosarcoma, dosed 51 weeks, study length 80 weeks) 0.698 mg/kg/day. The TD50 was 0.227 mg/kg/day (rat, strain Sprague-Dawley, males, site: any site (literature study), lesion: several types, types named in the paper, dosed 51 weeks, study length 80 weeks); 1.03 mg/kg/day (rat, strain Sprague-Dawley, males, site: bone + vertebra, lesion: osteosarcoma, dosed 51 weeks, study length 80 weeks); 2.11 mg/kg/day (rat, strain Sprague-Dawley, males, site: liver, lesion: hepatocellular adenoma + hepatocellular carcinoma + neoplastic nodule, dosed 51 weeks, study length 80 weeks); 1.49 mg/kg/day (rat, strain Sprague-Dawley, males, site: peritoneum, lesion: fibrosarcoma + mesothelioma, NOS + mesothelioma, malignant + sarcoma, NOS, dosed 51 weeks, study length 80 weeks).
